# Results: US20050089571A1, “Pharmaceutical formulation for the active ingredient budesonide” (ROEHM GMBH & CO.KG, priority 2002, published 2005)
# Assay: Release test for budesonide, USP XXIII <711> Dissolution, apparatus 2 (paddle), 100 revolutions/min
# Format: physicochemical
# Experimental: The release test for budesonide is carried out in accordance with USP XXIII monograph <711> “Dissolution” with apparatus 2 (paddle) with 100 revolutions/min in phosphate buffer of pH 7.5 according to the monograph “Intestinal Fluid, Simulated, TS” without addition of pepsin or in purified water with the paddle at 100 revolutions/min with 500 ml of dissolving medium. 400 mg of sample were weighed for each determination. Detection took place by means of HPLC with a PP 18 column, 10 cm (Phenomenex) and UV detection at 246 nm. Equipment: pump L 7000 100 (from Merck-Hitachi, Darmstadt, Germany), autosampler L 7000 200 (from Merck-Hitachi, Darmstadt, Germany) UV/VIS detector L 4250 (from Merck-Hitachi, Darmstadt, Germany). The volume injected was 100 μl, and the flow rate was 1 ml/min. The retention times averaged 2.5 min. At the end of the test, the pellets were homogenized with an Ultra Turrax for 10 min. The content was used as 100% value in the calculation. 3 to 6 tests were carried out for each medium.
# The pellets release the active ingredient under the indicated conditions in vitro as described below. At the end of the test, the pellets were homogenized using an Ultra Turrax for 10 min, and the budesonide concentration in the solution was again determined. The latter measurement was used as 100% value (theoretically possible budesonide content in the solution) in the calculation.
compound,measurement,setting,value
"CCCC1O[C@@H]2C[C@H]3[C@@H]4CCC5=CC(=O)C=C[C@]5(C)[C@H]4[C@@H](O)C[C@]3(C)[C@]2(C(=O)CO)O1 (stereo partly shown) [Example 1, budesonide]","Release in purified water and phosphate buffer of pH 7.5, Mean",time 0 min,0.0 % of theory
same,"Release in purified water and phosphate buffer of pH 7.5, Mean",time 60 min,ca. 3.7 % of theory
same,"Release in purified water and phosphate buffer of pH 7.5, Mean",time 120 min,ca. 5.4 % of theory
same,"Release in purified water and phosphate buffer of pH 7.5, Mean",time 180 min,ca. 7.1 % of theory
